Patent publication US9504730B2, “Method of achieving a thymosin beta 4 concentration in a human patient” (REGENERX BIOPHARMACEUTICALS, INC., priority 2010, dated 2016)

Columns and labels:
[1] = Analysis of TB4 concentration data from human patients administered different dosages of thymosin beta 4; type: in vivo; parameters: key to whether first dose brings TB4 concentration that high: ~: indicates first dose does not bring TB4 concentration that high; *: indicates the most efficient treatment (as determined by total required)
From the text: The above formulas were developed by analysis of data from human patients who had been administered different dosages of thymosin beta 4. The frequency of dosing needed between dosages to achieve the desired concentration over time, multiplied by the dosage, gave the total drug administered in a 24-hour period. The dosage that maintained the required concentration with the lowest total drug administered was termed the most efficient. See Exampe I, below.
Based on the data collected, concentrations of TB4 in the body portion follow (especially soon after administration, with a decreasing correlation over time) a power function. An estimation of the concentration of thymosin beta 4 at 1 hour was determined using this model with an average within 10% of the experimental mean for the concentrations tested. The concentrations in the tested patients at 1 hour give an approximate range that can be efficiently maintained because the concentrations at about 1 hour are approximately 15% of the initial concentration (mean 14.7%, median 13.3%). The concentration found in human patients at 5 minutes after initial administration intravenously was defined as the initial concentration, and as Cmax, i.e. the maximum concentration achieved after administration of a dose. For the calculations made in the studies, the range of concentration which is the effective and desired dose was assumed to be 5-25% of this initial concentration (Cmax). In general, intervals between intravenous treatment times of about an hour also are the most reliably efficient in achieving and maintaining a particular concentration. Therefore, in certain embodiments, when calculating dosage using Formula I or Formula II, t may equal about 1. The concentration which is achieved with a particular dosage of thymosin beta 4 at 5 minutes (Cmax) can be found using Formula I by calculating C using the particular dosage (D) and 0.083 hours (5 minutes) as t.
Using Formula II, concentration at 1 hour is (35.6)D. In certain embodiments, the formula gives the concentration with an average error of about 10%, calculated against the experimental mean from in vivo patient data. Formulas I and II where t=1, therefore, provide a reasonable estimation of a concentration that is an acceptable and effective concentration to provide therapeutic treatment.
Treatment regimens to maintain a given dose (data summary): […]

[2] = Thymosin dosage regimens calculated with Formula II; parameters: species or system human
From the text: A physician or health care provider may first determine a desired concentration of thymosin beta 4 (or a desired increase in concentration of thymosin beta 4 from an existing level) in a body portion of a live human patient in need of treatment. The physician or health care provider may then calculate the dosage necessary to achieve the desired concentration using the formula: C=(A)D·t^−B (Formula I), or D=C/(A)(t^−B) (Formula IA), wherein C is the predetermined thymosin beta 4 concentration to be provided in ng/mL, D is the dosage of thymosin beta 4 administered in mg, t is the time elapsed after administration of an initial dosage of thymosin beta 4 in hours (t is treated as a constant in this equation), A is about 30 to about 38, and B is about 0.5 to about 1. According to one embodiment, the formula is C=(35.6)D·t^−0.754 (Formula II). Time, t, may be 1, and D may equal C/35.6.
A patient in need of thymosin beta 4 treatment with a concentration of 10,000 ng/mL exogenous thymosin beta 4 is administered thymosin beta 4 according to a dosage schedule wherein D and t are calculated using C=(35.6)D*t[…].
A patient in need of thymosin beta 4 treatment with a concentration of 10,000 ng/mL exogenous thymosin beta 4 with a 1-hour dosing frequency is administered D=C/(A)t^−B=10,000 ng/mL/(35.6)(1^−0.75 h)=281 mg thymosin beta 4. […]

[3] = Concentration > 1000 ng/mL in blood, infusion dosage 42 mg per dose
[4] = Concentration > 1000 ng/mL in blood, infusion dosage 140 mg per dose
[5] = Concentration > 1000 ng/mL in blood, infusion dosage 420 mg per dose
[6] = Concentration > 1000 ng/mL in blood, infusion dosage 1260 mg per dose
[7] = Concentration > 5000 ng/mL in blood, infusion dosage 42 mg per dose
[8] = Concentration > 5000 ng/mL in blood, infusion dosage 140 mg per dose
[9] = Concentration > 5000 ng/mL in blood, infusion dosage 420 mg per dose
[10] = Concentration > 5000 ng/mL in blood, infusion dosage 1260 mg per dose
[11] = Concentration > 10000 ng/mL in blood, infusion dosage 42 mg per dose
[12] = Concentration > 10000 ng/mL in blood, infusion dosage 140 mg per dose
[13] = Concentration > 10000 ng/mL in blood, infusion dosage 420 mg per dose
[14] = Concentration > 10000 ng/mL in blood, infusion dosage 1260 mg per dose
[15] = Concentration > 20000 ng/mL in blood, infusion dosage 140 mg per dose
[16] = Concentration > 20000 ng/mL in blood, infusion dosage 420 mg per dose
[17] = Concentration > 20000 ng/mL in blood, infusion dosage 1260 mg per dose
[18] = Concentration > 40000 ng/mL in blood, infusion dosage 420 mg per dose
[19] = Concentration > 40000 ng/mL in blood, infusion dosage 1260 mg per dose
[20] = human patients, intravenous, initial concentration = 5 minutes after administration (Cmax)

A of Formula II C=(A)D·t^−B (concentration at 1 hour is (35.6)D) ([1]; C in ng/mL, D in mg, t in hours, developed by analysis of human patient data): 35.6
Frequency of administration [1, 3]: 2 h
Total TB4 required for 24 hour treatment [1, 3]: 504 mg
Frequency of administration [1, 4]: 3 h
Total TB4 required for 24 hour treatment [1, 4]: 1120 mg
Frequency of administration [1, 5]: 6 h
Total TB4 required for 24 hour treatment [1, 5]: 1680 mg
Frequency of administration [1, 6]: 9 h
Total TB4 required for 24 hour treatment [1, 6]: 3360 mg
Frequency of administration [1, 7]: 0.167 h
Total TB4 required for 24 hour treatment [1, 7]: 6048 mg
Frequency of administration [1, 8]: 1 h
Total TB4 required for 24 hour treatment [1, 8]: 5040 mg
Frequency of administration [1, 9]: 2 h
Total TB4 required for 24 hour treatment [1, 9]: 5040 mg
Frequency of administration [1, 10]: 4 h
Total TB4 required for 24 hour treatment [1, 10]: 7560 mg
Frequency of administration [1, 11]: 0.083 h
Total TB4 required for 24 hour treatment [1, 11]: 12096 mg
Frequency of administration [1, 12]: 0.333 h
Total TB4 required for 24 hour treatment [1, 12]: 10080 mg
Frequency of administration [1, 13]: 1 h
Total TB4 required for 24 hour treatment [1, 13]: 10080 mg
Frequency of administration [1, 14]: 3 h
Total TB4 required for 24 hour treatment [1, 14]: 10080 mg
whether first dose brings TB4 concentration that high ([1]; Concentration > 20000 ng/mL in blood, infusion dosage 42 mg per dose): ~42
Frequency of administration [1, 15]: 0.167 h
Total TB4 required for 24 hour treatment [1, 15]: 20160 mg
Frequency of administration [1, 16]: 0.667 h
Total TB4 required for 24 hour treatment [1, 16]: 15120 mg
Frequency of administration [1, 17]: 2 h
Total TB4 required for 24 hour treatment [1, 17]: 15120 mg
whether first dose brings TB4 concentration that high ([1]; Concentration > 40000 ng/mL in blood, infusion dosage 42 mg per dose): ~42
whether first dose brings TB4 concentration that high ([1]; Concentration > 40000 ng/mL in blood, infusion dosage 140 mg per dose): ~140
Frequency of administration [1, 18]: 0.167 h
Total TB4 required for 24 hour treatment [1, 18]: 60480 mg
Frequency of administration [1, 19]: 1 h
Total TB4 required for 24 hour treatment [1, 19]: 30240 mg
average concentration at 1 hour after administration, % of Cmax (SD) ([1]; human patients, experimental data, Cmax = 5-minute concentration): 15.7%±1.32%
concentration at about 1 hour as % of the initial concentration, mean [1, 20]: 14.7%
concentration at about 1 hour as % of the initial concentration, median [1, 20]: 13.3%
concentration at about 1 hour as % of the initial concentration ([1]; human patients, intravenous, initial concentration = 5 minutes after administration (Cmax), approximate): approximately 15%
Cmax ([1]; human, in vivo, intravenous, 6 mg/kg to 18 mg/kg dosing (420 mg and 1260 mg unit dose, respectively), read-out: Cmax levels): 90 to 350 µg/mL
time t between dosage forms calculated for the desired concentration ([2]; 10,000 ng/mL exogenous thymosin beta 4, 200 mg unit dosage forms): 0.637 h
dosage D calculated for the desired concentration ([2]; 10,000 ng/mL exogenous thymosin beta 4, 1-hour dosing frequency): 281 mg
Structure (SMILES): CC[C@H](C)[C@H](NC(=O)[C@H](CCC(=O)O)NC(=O)[C@H](C)NC(=O)[C@H](CCSC)NC(=O)[C@H](CC(=O)O)NC(=O)[C@@H]1CCCN1C(=O)[C@H](CCCCN)NC(=O)[C@H](CC(=O)O)NC(=O)[C@H](CO)NC(C)=O)C(=O)N[C@@H](CCC(=O)O)C(=O)N[C@@H](CCCCN)C(=O)N[C@@H](Cc1ccccc1)C(=O)N[C@@H](CC(=O)O)C(=O)N[C@@H](CCCCN)C(=O)N[C@@H](CO)C(=O)N[C@@H](CCCCN)C(=O)N[C@@H](CC(C)C)C(=O)N[C@@H](CCCCN)C(=O)N[C@@H](CCCCN)C(=O)N[C@H](C(=O)N[C@@H](CCC(=O)O)C(=O)N[C@H](C(=O)N[C@@H](CCC(N)=O)C(=O)N[C@@H](CCC(=O)O)C(=O)N[C@@H](CCCCN)C(=O)N[C@@H](CC(N)=O)C(=O)N1CCC[C@H]1C(=O)N[C@@H](CC(C)C)C(=O)N1CCC[C@H]1C(=O)N[C@@H](CO)C(=O)N[C@@H](CCCCN)C(=O)N[C@@H](CCC(=O)O)C(=O)N[C@H](C(=O)N[C@H](C(=O)N[C@@H](CCC(=O)O)C(=O)N[C@@H](CCC(N)=O)C(=O)N[C@@H](CCC(=O)O)C(=O)N[C@@H](CCCCN)C(=O)N[C@@H](CCC(N)=O)C(=O)N[C@@H](C)C(=O)NCC(=O)N[C@@H](CCC(=O)O)C(=O)N[C@@H](CO)C(=O)O)[C@@H](C)CC)[C@@H](C)O)[C@@H](C)O)[C@@H](C)O [thymosin beta 4, Thymosin beta 4]
